In patent US20240059739A1, “PEPTIDES FOR INCREASING DRUG DELIVERY TO CANCER” (Chapman University, priority 2022, published 2024):
Where a SMILES comes first, the peptide text is derived from it.

Assays:
[1] = tested on: human melanoma A375 tumor xenografts and organs; test: In vivo and ex vivo imaging of biodistribution in mice bearing A375 xenografts; set-up: species or system athymic nude mice; conditions: ex vivo imaging
Protocol: FIG. 4A and FIG. 4B-1 and FIG. 4B-2 show in vivo and ex vivo organ distribution images of VivoTag 680 XL-labeled D-aa KK-11 in athymic nude mice bearing human melanoma A375 tumors. Saline or VivoTag-KK-11 in a dose of 8 μg per mouse was injected into the mice via the tail vein (n=2 for each time point).
The top panels represent the scanned images of the tumor section area in coronal views. The bottom-row pictures display the fluorescence image in trans-axial views: arrows point to the spine, and circles mark the xenograft tumors.
Organs including tumor xenografts (T), liver (L), spleen (S), heart and lungs (H+L), kidneys (K), and brain (B) were excised and imaged using the IVIS Spectrum imaging system. Representative fluorescence images of different organs show peptide distribution at different time points as indicated.
Ex vivo and in vivo imaging. The study was carried out in compliance with Animal Research: Reporting of In Vivo Experiments (ARRIVE) guidelines. All the animal procedures were approved by the Institutional Animal Care and Use Committee (IACUC) at Chapman University and conducted in compliance with the policies of Chapman University, and federal, state, and local animal welfare authorities. Male and female athymic nude mice (4-6 weeks old) were kept (5 in each cage) in a pathogen-free environment. Approximately 10^6 human melanoma A375 cells (0.1 mL in normal saline), mixed with 0.1 mL cold Matrigel (#354248; Corning, Corning, NY), were injected subcutaneously in the flank. The tumor size was measured with a caliper, and body weight was recorded once a week. When the tumor size reached approximately 800-1000 mm^3 as calculated using the following formula: [Length×(Width^2)]/2 (in mm), mice were processed for in vivo or ex vivo imaging.
For in vivo imaging, normal saline or VivoTag-KK-11 at a dose of 8 μg per mouse was injected into the mice via the tail vein (n=2 for each time point). The animals were then scanned at different time intervals (0.5, 2, 6, and 24 h) using an IVIS Spectrum in vivo imaging system (PerkinElmer, Waltham, MA). The mice were imaged for 0.5 sec, 10 bin, level B at an emission wavelength of 688±5 nm. Imaging was limited to no more than once a day and was conducted under continuously maintained isoflurane. Mice were maintained on alfalfa-free diets to minimize the background fluorescence. All the study animals survived through the in vivo imaging procedure.
For ex vivo imaging at defined time intervals (5, 15, 30 min, followed by 1, 1.5, 2, 3, 4, 6, 24, and 48 h) following fluorescence conjugate injection, animals were euthanized via carbon dioxide inhalation (n=2 for each time point); tumor, liver, spleen, heart, lungs, brain, and kidneys were collected and briefly rinsed with saline. The organs were then imaged for 0.5 sec, 10 bin, level B at an emission wavelength of 688±5 nm using an IVIS Spectrum imaging system.

[2] = Serum stability (RP-HPLC AUC of intact peptide); assay type: in vitro ADME
Protocol: Serum stability. Human serum (250 μL) was thawed to room temperature and was added to DMEM media (650 μL). The mixture was kept in a 37° C. incubator to mimic human body temperature for 15 min. The peptide (100 μL, 1 mM) was dissolved (dispersed) in sterile water. The peptide solution was added to the pre-warmed human serum and DMEM mixture. The mixture was incubated at 37° C. At different time points (0, 0.5, 1, 5, and 24 h) aliquots (100 μL) were removed and added to methanol (200 μL). Each time point sample was kept at 4° C. for 5 min and then was centrifuged at 500×g for 15 min to separate serum proteins. The supernatant was injected into the RP-HPLC, and the major peaks were collected. The peak's mass was determined using MALDI-TOF mass analysis. The serum stabilities of the D-aa KK-11 were determined by comparing the HPLC peaks (AUC) for the intact peptides at different time points.
For in vivo studies, peptide KK-11 was labeled with a fluorescent Vivotag 680 XL in the N-terminus (Scheme 1). In addition, two amino acids in the sequence (norleucine and arginine) were substituted with D-amino acids to increase proteolytic stability. These amino acids were identified as proteolytically labile sites. The D-aa KK-11 peptide was assembled on acid-labile Rink amide resin and was characterized. The proteolytic stability of the D-aa KK-11 peptide was evaluated by incubating with human serum. The presence of the intact peptide after incubation with human serum for different time periods was detected using RP-HPLC and confirmed by MALDI-TOF mass analysis. […] However, peptide KK-11 with all L-amino acids reduced to an undetectable level within 30 min (data not shown). For conjugating VivoTag 680 XL dye, the peptide was modified by incorporating a β-alanine moiety generating the precursor Aβ-KK-11. The structure and mass of Aβ-KK-11 were confirmed by NMR (^1H and ^13C) and MALDI-TOF [M+H]^+ 1588.5 Da. Next, the β-alanine terminal amino group was allowed to react with the succinimidyl ester group of the reactive fluorophore (VivoTag 680 XL) under basic conditions in polar aprotic solvent, generating the fluorescently labeled peptide with extrusion of N-hydroxysuccinimide (NHS) (Scheme 1). The mass of the fluorescence-labeled VivoTag-Aβ-KK-11 was confirmed by MALDI-TOF, showing a peak at 2823.4 Da, corresponding to [M+H]^+.

[3] = tested on: human melanoma cells (wm3211, Sk-mel-28, A375); test: In vitro cellular uptake of FITC-labeled peptides by flow cytometry (FACS); assay type: cell-based; conditions: 0.5 and 1 μM
Protocol: (§1) The bar represents the average fluorescence density of three cell lines (A375, Sk-mel-28, and wm3211 cells) detected by fluorescence-activated cell sorting (FACS) analysis. The cells were incubated with FITC-labeled peptide for […] at 37° C. (0.5 μM, grey bar; 1 μM, dark bar). The control is cells incubated with FITC alone. […] Cells were either treated with DOX or co-treated with DOX and KK-11 (1 μM) for 72 h (KK-11+DOX) or pretreated with KK-11 for 4 h, then washed away following a DOX 72 h treatment (KK-11 to DOX). Control is DMSO or KK-11 alone. Cell viability was detected by a MTT colorimetric assay. Statistical analysis was performed with a student's t-test, and error bars denote mean±SD; **, p<0.01; ***, p<0.001 compared to DOX alone. […] Cells were treated with MAC-3-190 at various concentrations with or without 1 μM KK-11 for 72 h. Cell viability was detected by MTT assay. The assays were repeated independently at least three times.
In vitro cellular uptake analysis. The peptide (FITC-labeled) concentration was determined using a Shimadzu BioSpec-nano Micro-volume UV-Vis spectrophotometer (Shimadzu). Human melanoma cells (wm3211, Sk-mel-28, and A375) were incubated with FITC or FITC-labeled peptides at final concentrations of 0.5 μM and 1 μM for 2 h. […] The mean fluorescence density of 10,000 cells was analyzed and compared to that of control cells.

[4] = tested on: human melanoma cell lines (A375, Sk-mel-28, wm115) compared to normal human HEK-293 cells; test: Peptide array-whole cell binding assay (CyQUANT fluorescence); assay type: cell-based; conditions: average fluorescent intensity of melanoma cells (A375, Sk-mel-28, wm115) bound to peptide divided by that of HEK-293 cells bound to same peptide
Description: Peptide array synthesis. Fifty-three peptide sequences were synthesized in duplicate on derivatized cellulose membrane (Intavis, Germany) using a ResPep SL Autospot robot. The detailed method was explained previously (Ahmed et al. Anal Chem. 82:7533-7541, 2010; Hossein-Nejad-Ariani et al. Sci Rep. 9:2723, 2019). Briefly, the sequences of peptides were entered in the robot software, and 384 spot synthesis mode was selected for this library. First, the membrane was dipped in DMF for an hour followed by transfer and support to the holder of the robot on filter paper. Then the membrane was washed with ethanol and subjected to a vacuum to remove any bubbles under the membrane. The Fmoc strategy was used for peptide synthesis. DIC and Oxyma pure were used as coupling reagent and racemization suppressor, respectively. After each coupling, capping of unreacted amino acids was done using acetic anhydride (3%), followed by 20% piperidine for Fmoc deprotection. The C-terminal end of all peptides were bound to the membrane. Following the synthesis, the membrane was dipped in deprotection solution containing 15 mL TFA, 15 mL DCM, 900 μL TIPS, and 600 μL water, and kept for 3 h at room temperature. Next, membranes were thoroughly washed with DCM, DMF, and ethanol. Finally, they were air dried and kept in a sealed bag at −20° C. until use.
Peptide array cell binding assay. The sequential steps of the assay are as described in a previous publication (Ahmed et al. 2010; Soudy et al. J Med Chem. 54:7523-7534, 2011). The membrane was dipped in ethanol for 30 sec to remove any precipitation of hydrophobic peptides. Then the membrane was dipped in sterile PBS at pH 7.4 for 30 min. The cells (75×10^3 cells/mL) were seeded directly on the membrane in a sterile plate and incubated at 37° C. for 4 h. After washing off the unbound cells with sterile PBS, pH 7.4, the membrane was frozen at −80° C. for 2 h. Subsequently, it was defrosted at room temperature and incubated in CyQUANT solution at 37° C. for 30 min following the manufacturer's protocol. The membrane was then washed with sterile PBS and air-dried.
Membranes were scanned using the ChemiDoc™ XRS+system (Bio-Rad) to analyze the fluorescence intensity of each spot. The setting was adjusted based on the excitation and emission wavelength of the CyQUANT dye at 465 nm and 535 nm, respectively. The fluorescence intensity (FI) was normalized by the FI of non-cancerous HEK-293 cells.
A library of 53 peptides was synthesized in an array format on a cellulose membrane using SPOT synthesis (Table 1). The peptide library was designed starting with five lead cancer cell targeting peptides, Arg peptide (1, Table 1), p160 analogue (11), RGD (16), GE11 (20), and LSD (37). Conservative substitutions, deletion from the N- or C-terminus, alanine scan, and scrambling of amino acids were used to design the analogues for the library. The peptides were screened for specific binding to three human melanoma cell lines. The cells were incubated with the cellulose membranes with conjugated peptides followed by incubation with CyQUANT fluorescence dye. A brief schematic for the peptide array-whole cell binding assay for screening peptides with high affinity for melanoma cells is shown in FIG. 2A. The relative cell adhesion capacities of the peptides to A375 (FIG. 2B), Sk-mel-28 (FIG. 2C), and wm115 were estimated based on the fluorescence of the bound melanoma cells compared to normal human HEK-293 cells.

[5] = tested on: human primary glioma U87 cells; test: Binding to glioma cells (data not shown); assay type: cell-based
[6] = tested on: A375 human melanoma xenograft; test: In vivo xenograft melanoma mouse model
Protocol: FIG. 5A; the tumors were measured three times a week using digital Vernier calipers. Tumor volume (mm^3) was calculated as [Length×(Width^2)/2. […] FIG. 5C; the body weights of the mice were measured after 21 days of treatment. Statistical analysis was performed with student's t-test and error bars denote mean±SD: *, p<0.05 compared to control group.
In vivo xenograft melanoma mouse model. Nude mice (Nu/Nu) were purchased from Charles River (Wilmington, MA) and were housed and maintained in the Chapman University vivarium under pathogen-free conditions. A375 cells were suspended in cold Matrigel and injected subcutaneously into the flank of each mouse (1×10^6 cells per mouse) to establish tumors. […] For the co-treatment, the solution of D-aa KK-11 and MAC-3-190 (1:11 molar ratio) was mixed gently and incubated at room temperature for 30 min before injection via tail vein. The growth of the tumors was monitored three times a week and measured using digital Vernier calipers. The tumor volume (mm^3) was calculated as [Length×(Width^2)]/2 (in mm). The mice were sacrificed after 21 days per IACUC policy when the control group's average tumor size reached 2,000 mm^3. Tumor xenografts were removed and weighed.

A375 melanoma cells = test: In vitro cytotoxicity detected by MTT colorimetric assay; assay type: cell-based, human; conditions: in vitro
Protocol: as §1
In vitro cytotoxicity detected by MTT colorimetric assay. Cells were seeded in a 96-well plate and allowed to adhere overnight prior to adding the compound. After 72 h of treatment in serum-free media, an MTT solution was added to each well to give a final concentration of 0.5 mg/mL and was incubated for 3 h. Formed crystals were solubilized, and the absorbance was measured at 595 nm.

time at which fluorescence is evident in tumor xenografts ([1]; 8 μg per mouse, tail vein) [min]	time fluorescence remained detectable in tumor xenografts ([1]; single tail vein injection)	remaining at 5 h, 100 µM ([2]; human serum (25% v/v in DMEM), 37° C., 5 h, read-out: area under the curve of the peptide peak, of control (t=0 h)) [%]	remaining at 24 h, 100 µM ([2]; human serum (25% v/v in DMEM), 37° C., 24 h, read-out: area under the curve of the peptide peak / peptide remaining, of control (t=0 h)) [%]	area under the curve of the peptide peak / peptide remaining, of control (t=0 h) ([2]; human serum, 37° C., 24 h) [%]	Molecule	uptake by melanoma cells (in words) [3]	Fluorescence Ratio [4]	binding to U87 cells [5]	toxicity of peptide alone in vivo [6]	time until reduced to an undetectable level ([2]; human serum, data not shown) [min]	cytotoxicity of peptide alone (A375 melanoma cells)
≤ 5	up to 24 h	97.4	45.3	45.3	CCCC[C@@H](NC(=O)[C@H](Cc1c[nH]c2ccccc12)NC(=O)[C@@H]1CCCN1C(=O)[C@@H](N)C(C)C)C(=O)N[C@@H](CCC(=O)O)C(=O)N1CCC[C@H]1C(=O)N[C@@H](C)C(=O)N[C@@H](Cc1ccc(O)cc1)C(=O)N[C@@H](CCC(N)=O)C(=O)N[C@H](CCCNC(=N)N)C(=O)N[C@@H](Cc1ccccc1)C(=O)N[C@@H](CC(C)C)C(N)=O [D-aa KK-11, VPWxEPAYQrFL] (HELM PEPTIDE1{V.P.W.[CCCC[C@@H](N[*:1])C(=O)[*:2]].E.P.A.Y.Q.[dR].F.L.[am]}$$$$V2.0; N-terminus assumed)						
					GRRPRPRPRP [Peptide 1, FITC-labeled (β-alanine spacer) in the uptake study]	significantly increased uptake	1.82				
					VPWXEPAYQRFL [Peptide 11, X stands for norleucine]		1.80	can also bind	No cytotoxicity	≤ 30	No cytotoxicity
